Laboratory results reported in patent US10154989B2, “Methods of managing graft versus host disease (GvHD) using indole carboxyaldehydes or derivatives thereof” (Emory University, priority 2015, dated 2018).
“Also recorded” adds a separate entry of the source.

Tests used:
Format in all cases: in vivo
[1] = system: GvHD in B10.BR (H2k) mice transplanted with TCD-BM+T cells; assay: GvHD model: lethally irradiated B10.BR mice given TCD-BM plus 2×10^6 B6 T cells, daily ICA gavage
Protocol: Lethally irradiated B10.BR (H2k) mice were transplanted with 3×10^6 T cell depleted bone marrow cells (TCD-BM) alone or the combination of TCD-BM plus 2×10^6 purified T cells from B6 (H2b) donor mice. Mice received daily gavage with 100 mg/kg or 150 mg/kg ICA or vehicle through day 38 post-transplant. Survival and clinical manifestations of GvHD were monitored through day 62. Histopathology of the gut, cytokines in serum and colon homogenates, intracellular cytokine staining of donor T-cells and bacterial counts in mesenteric lymph nodes (using blood agar plates) were measured in a separate cohort of experimental mice euthanized on day 20. Additionally, a secondary transplant was conducted to test the allo-proliferative capacity (in vivo CFSE dilution assay) and GvHD activity of T-cells from spleens of mice in the TCD-BM+T cells+150 mg/kg ICA group that survived to day 62, compared to B6 T cells, in combination with fresh B6 TCD-BM, in B10.BR recipients.
They were fed vehicle, 100 mg/kg/day of ICA, or 150 mg/kg/day of ICA by oral gavage. Only 7% of the recipients of TCD-BM+T cells treated with vehicle only survived to day 46.

[2] = system: GvHD in B10.BR mice administered TCDBM+T cells; assay: GvHD model: 11Gy TBI B10.BR mice given TCDBM plus 3×10^6 allo-MHC mismatched C57Bl/6 T cells
Protocol: B6,B10.BR allo MHC mismatched transplants, administering 3×10^6 MHC mismatched donor T cells following myeloablative irradiation with 11Gy that injures gut epithelia. […] ICA (150 mg/kg/d) p.o. QD.
The gut microbiota contribute to GvHD, yet some Lactobacillus species, which produce ICA and related molecules, mitigate GvHD. Thus, depending on the composition of the microbiota, molecules derived from it might protect from GvHD or exacerbate it. ICA might limit GvHD, by regulating barrier integrity. A myeloablative dose of total body irradiation (TBI) (11Gy) was administered to B10.BR mice, an established murine model of GvHD, in which followed by transplantation of T cell depleted bone marrow (TCDBM) plus/or minus 3×10^6 allo-MHC mismatched T cells all from donor C57Bl/6 mice. Mice administered TCDBM+T cells consistently developed GvHD, increased apoptosis and crypt hyperplasia in the colon (e.g. FIG. 4C), bacterial dissemination to mesenteric lymph nodes (FIG. 4B), increased Th17 responses, and 90% lethality by 30 days (FIG. 4A). […] Thus, ICA protects against GvHD.

[3] = system: radiation-induced enteritis in mice; assay: Radiation enteritis: 12Gy TBI without BM transplant
Text: Mice were subjected to 12Gy TBI without BM transplant, a lethal model in which most animals succumb to radiation-induced enteritis by about 7 days post-irradiation (p.i.), as opposed to hematopoietic failure at about 14 days p.i. […] (FIG. 5C). Thus, ICA reduced the death rate of both colonic and hematopoietic stem cells. […] While reduced intestinal damage and improved repair likely accounts at least in part for initial improvement in GvHD animals, additional effects on immune tolerance were also evident, but only over very long periods of administration (>3 months).

C. rodentium = assay: Infectious colitis: ICA given to mice infected with C. rodentium
Protocol: Indoles were assessed in models of epithelial barrier integrity and immune regulation in mammals. Pathogenic E. coli (EPEC and EHEC) and the related mouse pathogen C. rodentium encode virulence factors and a Type III secretion system through the LEE pathogenicity island, and cause diarrhea and colitis. In vivo, C. rodentium causes infectious colitis, characterized by neutrophil and T cell infiltration into the lamina propria, transient increases in IL-22, epithelial barrier breakdown, crypt hyperplasia (an indicator of repair), and dissemination of bacteria throughout the body. […] Thus, indole derivatives, produced via commensal E. coli TnaA, mitigate pathogen infection. ICA was administered to mice that were infected with C. rodentium.

[4] = ICA-treated recipients of TCD-BM+T cells
[5] = mice infected with C. rodentium

O=Cc1c[nH]c2ccccc12 [ICA, indole-3-carboxaldehyde]
survival of recipients of TCD-BM+T cells ([1]; 100 mg/kg/day ICA oral gavage, at day 52, p=0.009): 20%
survival of recipients of TCD-BM+T cells ([1]; 150 mg/kg/day ICA oral gavage, p<0.001): 83%
levels of inflammatory cytokines [1, 4]: decreased levels of inflammatory cytokines
thymopoiesis [1, 4]: improved thymopoiesis
GvHD activity of recovered T cells in secondary B10.BR recipients ([1]; T cells recovered at day 62 from ICA-treated recipients): lack of GvHD activity
proliferation of CFSE-stained T cells in secondary transplant ([1]; T cells recovered at day 62 from ICA-treated recipients, secondary B10.BR recipients): reduced proliferation
GvHD mortality / survival, in words ([1]; daily doses of ICA, 100 or 150 mg/kg/day): improved survival in a dose-dependent manner; also recorded: reduces GvHD mortality in a dose-dependent manner
engraftment by allogeneic donor bone marrow ([1]; fed to transplant recipients for the first few weeks after transplant): allows normal engraftment
tolerability / toxicity ([1]; recipients of BM grafts without GvHD-causing T-cells): well tolerated without serious toxicity
GvHD pathology, histological analysis of colonic tissue ([1]; vs vehicle-treated control animals): marked reduction of GvHD pathology
bacterial colonization of mesenteric lymph nodes (MLN) ([1]; vs vehicle-treated control animals, p<0.01): decreased bacterial colonization; also recorded: reduce bacterial colonization
bacterial dissemination to mesenteric lymph nodes ([2]; ICA p.o. 150 mg/kg QD): abrogated
colon damage ([2]; ICA p.o. 150 mg/kg QD): abrogated
effect on liver GvHD ([2]; ICA p.o. 150 mg/kg QD): without effect
animals in which weight loss and death were prevented ([2]; ICA p.o. 150 mg/kg QD, animals receiving TCDBM+T cells): 90%
tolerance of donor C57Bl/6 T cells to B10.BR antigens ([2]; after long-term treatment (50 days)): irreversibly and permanently tolerant
response of donor T cells to allo-antigens other than B10.BR or C57Bl/6 ([2]; after long-term treatment (50 days), upon secondary transplantation): remain responsive
survival of mice with transplanted allogeneic T cells ([2]; untreated animals all succumbed to GvHD): 90%
mean survival time ([3]; 12Gy TBI without BM transplant, extended from 7 days): 12 days p.i.
apoptotic cells in the colon ([3]; at 6 hr p.i.): fewer apoptotic cells; also recorded: decrease
hematopoietic cells in the marrow ([3]; at 4 days p.i.): increased numbers; also recorded: enhances survival of hematopoietic progenitors
survival from radiation, in words ([3]; no BM transplant): promotes survival
survival (C. rodentium; ICA 150 mg/kg/d p.o., C. rodentium infected MyD88−/− mice, compared to vehicle): enhances survival
barrier integrity (C. rodentium; [5]): maintained barrier integrity
survival (C. rodentium; [5]): prolonged survival
